Consider 31 compounds from patent US9290453B2 (Merck Sharp & Dohme Corp., priority 2010, dated 2016).

This experiment deals with T1, hCRTH2 (Homo sapiens, UniProt Q9Y5Y4).
T1 construct: expressed in transfected cells; host or cells: HEK (human embryonic kidney) cells expressing hCRTH2
T1 sequence (Q9Y5Y4 1-395): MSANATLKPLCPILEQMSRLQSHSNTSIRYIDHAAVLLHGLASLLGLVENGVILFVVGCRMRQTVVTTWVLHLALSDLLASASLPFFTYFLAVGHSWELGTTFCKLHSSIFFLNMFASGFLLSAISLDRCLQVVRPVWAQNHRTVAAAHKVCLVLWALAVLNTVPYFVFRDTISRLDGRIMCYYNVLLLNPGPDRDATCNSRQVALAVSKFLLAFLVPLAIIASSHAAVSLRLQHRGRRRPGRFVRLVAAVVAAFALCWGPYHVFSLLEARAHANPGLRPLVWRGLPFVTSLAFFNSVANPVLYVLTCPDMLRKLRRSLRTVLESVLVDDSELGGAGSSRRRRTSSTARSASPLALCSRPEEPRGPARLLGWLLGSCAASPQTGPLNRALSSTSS
Nature of the experiment: Radioligand Binding Assay A ([3H]PGD2 filtration binding, HEK-hCRTH2 membranes). On the procedure: Radioligand binding assays were performed at room temperature in 50 mM Tris-HCl pH 7.4, 1 mM EDTA containing 2 mM MnCl2 and 3.0 nM [^3H]PGD2 (New England Nuclear, Boston, Mass.) (171 Ci mmol^−1), in a final volume of 0.2 ml. Competing ligands were diluted in dimethylsulfoxide (Me2SO) that was kept constant at 1% (v/v) of the final incubation volume. The reaction was initiated by the addition of 8-20 μg of membrane protein prepared from a human embryonic kidney (HEK)-hCRTH2 cell line. Total and non-specific binding were determined in the absence and the presence of 10 μM PGD2, respectively. Under these conditions, specific binding (total minus non-specific) of the radioligand to the receptor reached equilibrium within 50 min and was stable up to 180 min. The reaction was routinely conducted for 60 min at room temperature and terminated by rapid filtration through prewetted (0.3% polyethyleneimine) 96-well printed Filtermate™ (Wallac) using a Tomtec® harvester (Hamden, Conn.). After washing with cold buffer, the filter was dried for 2 minutes in microwave, and Meltilex Scintillator sheet (Wallac) was melted on for 2 min. The radioactivity was measured with Betaplate model 1205 (Wallac).

The structures appear in SMILES notation.

Broadly, the Ki is the equilibrium dissociation constant of an inhibitor or competing ligand from its target. Under “Table A, rated A-D”, `O=C(O)CCCCc1cc2cc(C(=O)NCc3ccc(F)cc3)ccc2nc1-c1ccccc1` [Compound 2C, 6-[[[(4-fluorophenyl)methyl]amino]carbonyl]-2-phenyl-3-quinolinepentanoic acid] yielded a Ki of 2.1 to 20 nM.

The compound `N#Cc1ccc([C@H](NC(=O)c2ccc3nc(-c4ccc(F)cc4)c(CCCCC(=O)O)cc3c2)C(F)(F)F)cc1` [Compound 5T] came in with a Ki (Table A, rated A-D) of 20.1 to 200 nM.

On to `O=C(O)CCCCc1cc2cc(C(=O)NCc3ccc(C(F)(F)F)cc3)ccc2nc1-c1ccccc1` [Compound 1F, 2-phenyl-6-[[[[4-(trifluoromethyl)phenyl]methyl]amino]carbonyl]-3-quinolinepentanoic acid], for which, under “Table A, rated A-D”, the inhibition constant Ki was 2.1 to 20 nM.

In turn, `O=C(O)CCCCc1cc2cc(C(=O)N[C@@H]3CCCc4cc(Cl)ccc43)ccc2nc1-c1ccc(F)cc1` [Compound 5P, 6-[[(6-chloro-1,2,3,4-tetrahydro-1(R)-naphthalenyl)amino]carbonyl]-2-(4-fluorophenyl)-3-quinolinepentanoic acid] came in with a Ki (Table A, rated A-D) of 2.1 to 20 nM.

In turn, `O=C(O)CCCCc1cc2cc(C(=O)N[C@H]3CCCc4ccccc43)ccc2nc1-c1ccc(F)cc1` [Compound 5M, 2-(4-fluorophenyl)-6-[[(1,2,3,4-tetrahydro-1(S)-naphthalenyl)amino]carbonyl]-3-quinolinepentanoic acid] had a Ki (Table A, rated A-D) of 2.1 to 20 nM.

For `O=C(O)CCCCc1cc2cc(C(=O)N3CCC[C@@H](c4ccccc4)C3)ccc2nc1-c1ccccc1` [Compound 1K, 2-phenyl-6-[(3(S)-phenyl-1-piperidinyl)carbonyl]-3-quinolinepentanoic acid], the inhibition constant Ki (Table A, rated A-D) was 2.1 to 20 nM.

Under “Table A, rated A-D”, `O=C(O)CCCCc1cc2cc(C(=O)NC(c3ccccc3)c3ccccc3)ccc2nc1-c1ccc(F)cc1` [Compound 5AA, 5-(6-(benzhydrylcarbamoyl)-2-(4-fluorophenyl)quinolin-3-yl)pentanoic acid] displayed an inhibition constant Ki of 2.1 to 20 nM.

Under “Table A, rated A-D”, `CN(Cc1ccc(Cl)cc1)C(=O)c1ccc2nc(-c3ccc(F)cc3)c(CCCCC(=O)O)cc2c1` [Compound 5U, 6-[[[(4-chlorophenyl)methyl]methylamino]carbonyl]-2-(4-fluorophenyl)-3-quinolinepentanoic acid] came in with an inhibition constant Ki of 2.1 to 20 nM.

For `O=C(O)CCCCc1cc2cc(C(=O)Nc3cc4ccccc4[nH]3)ccc2nc1-c1ccccc1` [Compound 1AB, 6-[(1H-indol-2-ylamino)carbonyl]-2-phenyl-3-quinolinepentanoic acid], where the note is “Table A, rated A-D”, the inhibition constant Ki fell in the range of 2.1 to 20 nM.

Consider `O=C(O)CCCCc1nc2cc(C(=O)NCc3ccc(OC(F)(F)F)cc3)ccc2cc1-c1ccccc1` [Compound 3, 5-(3-phenyl-7-(4-(trifluoromethoxy)benzylcarbamoyl)quinolin-2-yl)pentanoic acid], for which, for the setting “Table A, rated A-D”, the Ki is 2.1 to 20 nM.

As to `C[C@@H](NC(=O)c1ccc2nc(-c3ccc(F)cc3)c(CCCCC(=O)O)cc2c1)c1cc(Cl)cc(Cl)c1` [Compound 5X, 6-[[[1(R)-(3,5-dichlorophenyl)ethyl]amino]carbonyl]-2-(4-fluorophenyl)-3-quinolinepentanoic acid], the inhibitory constant (Ki) is, setting by setting: (Table A, rated A-D) 2.1 to 20 nM; (values in text) 5.4 nM.

Take `O=C(O)CCCCc1cc2cc(C(=O)N[C@@H]3CCCc4ccccc43)ccc2nc1-c1ccccc1` [Compound 1o, 2-phenyl-6-[[(1,2,3,4-tetrahydro-1(R)-naphthalenyl)amino]carbonyl]-3-quinolinepentanoic acid]: the inhibitory constant (Ki) (Table A, rated A-D) was 2.1 to 20 nM.

`C[C@H](NC(=O)c1ccc2nc(-c3ccccc3)c(CCCCC(=O)O)cc2c1)c1ccc(Cl)cc1` [Compound 1AE, 6-[[[1(S)-(4-chlorophenyl)ethyl]amino]carbonyl]-2-phenyl-3-quinolinepentanoic acid] showed a Ki (Table A, rated A-D) of 2.1 to 20 nM.

`C[C@@H](NC(=O)c1ccc2nc(-c3ccc(F)cc3)c(CCCCC(=O)O)cc2c1)c1ccc(F)cc1` [Compound 5D, 2-(4-fluorophenyl)-6-[[[1(R)-(4-fluorophenyl)ethyl]amino]carbonyl]-3-quinolinepentanoic acid] came in with an inhibitory constant (Ki) (Table A, rated A-D) of 2.1 to 20 nM.

Take `O=C(O)CCCCc1cc2cc(C(=O)NCCCN3CCCC3=O)ccc2nc1-c1ccccc1` [Compound 1AA, 6-[[[3-(2-oxo-1-pyrrolidinyl)propyl]amino]carbonyl]-2-phenyl-3-quinolinepentanoic acid]: the Ki (Table A, rated A-D) was 2.1 to 20 nM.

`O=C(O)CCCCc1cc2cc(C(=O)N[C@H]3CCc4ccccc43)ccc2nc1-c1ccccc1` [Compound 1N, 6-[[(2,3-dihydro-1H-inden-1(S)-yl)amino]carbonyl]-2-phenyl-3-quinolinepentanoic acid] had a Ki (Table A, rated A-D) of 2.1 to 20 nM.

For `O=C(O)CCCCc1nc2cc(C(=O)N3CC[C@H](c4ccccc4)C3)ccc2cc1-c1ccccc1` [Compound 3i, 3-phenyl-7-[(3(R)-phenyl-1-pynolidinyl)carbonyl]-2-quinolinepentanoic acid], where the note is “Table A, rated A-D”, the Ki lay within 2.1 to 20 nM.

On to `O=C(O)CCCCc1cc2cc(C(=O)N[C@@H]3CCc4cc(Cl)ccc43)cnc2nc1-c1ccc(F)cc1` [Compound 6E, 6-[[(5-chloro-2,3-dihydro-1H-inden-1(R)-yl)amino]carbonyl]-2-(4-fluorophenyl)-1,8-naphthyridine-3-pentanoic acid], for which the inhibition constant (Ki) (Table A, rated A-D) lay in the range of 2.1 to 20 nM.

In turn, `O=C(O)CCCCc1nc2cc(C(=O)N3CCC(c4ccccc4)CC3)ccc2cc1-c1ccccc1` [Compound 3E, 3-phenyl-7-[(4-phenyl-1-piperidinyl)carbonyl]-2-quinolinepentanoic acid] showed an inhibitory constant (Ki) (Table A, rated A-D) of 2.1 to 20 nM.

Compound `O=C(O)CCCCc1cc2cc(C(=O)N[C@H]3CCc4cc(Cl)ccc43)cnc2nc1-c1ccc(F)cc1` [Compound 6L, 6-[[(5-chloro-2,3-dihydro-1H-inden-1(S)-yl)amino]carbonyl]-2-(4-fluorophenyl)-1,8-naphthyridine-3-pentanoic acid] displayed a Ki (Table A, rated A-D) of 2.1 to 20 nM.

In turn, `C[C@H](NC(=O)c1ccc2nc(-c3ccccc3)c(CCCCC(=O)O)cc2c1)c1ccccc1` [Compound 1T, 2-phenyl-6-[[(l(S)-phenylethyl)amino]carbonyl]-3-quinolinepentanoic acid] came in with a Ki (Table A, rated A-D) of 2.1 to 20 nM.

Turning to `O=C(O)CCCCc1cc2cc(C(=O)N[C@H]3CCc4ccc(F)cc43)ccc2nc1-c1ccc(F)cc1` [Compound 5L, 6-[[(6-fluoro-2,3-dihydro-1H-inden-1(S)-yl)amino]carbonyl]-2-(4-fluorophenyl)-3-quinolinepentanoic acid], where the note is “Table A, rated A-D”, the Ki lay in the range of 2.1 to 20 nM.

The compound `C[C@@H](NC(=O)c1cnc2nc(-c3ccc(F)cc3)c(CCCCC(=O)O)cc2c1)c1ccc(Cl)cc1` [Compound 6, 6-[[[1(R)-(4-chlorophenyl)ethyl]amino]carbonyl]-2-(4-fluorophenyl)-1,8-naphthyridine-3-pentanoic acid] gave an inhibition constant Ki (Table A, rated A-D) of 20.1 to 200 nM.

`C[C@H](NC(=O)c1ccc2cc(-c3ccccc3)c(CCCCC(=O)O)nc2c1)c1ccc(Cl)cc1` [Compound 3G, 7-[[[1(S)-(4-chlorophenyl)ethyl]amino]carbonyl]-3-phenyl-2-quinolinepentanoic acid]: the Ki (Table A, rated A-D) was in the range of 2.1 to 20 nM.

Regarding `C[C@@H](NC(=O)c1ccc2nc(-c3ccccc3)c(CCCCC(=O)O)cc2c1)c1ccccc1` [Compound 1S, 2-phenyl-6-[[(l(R)-phenylethyl)amino]carbonyl]-3-quinolinepentanoic acid], the Ki (Table A, rated A-D) fell in the range of 2.1 to 20 nM.

Take `O=C(O)CCCCc1cc2cc(C(=O)N[C@H]3CCCc4cc(Cl)ccc43)ccc2nc1-c1ccc(F)cc1` [Compound 5S, 6-[[(6-chloro-1,2,3,4-tetrahydro-1(S)-naphthalenyl)amino]carbonyl]-2-(4-fluorophenyl)-3-quinolinepentanoic acid]: the Ki (Table A, rated A-D) lay within 2.1 to 20 nM.

`CC(NC(=O)c1ccc2nc(-c3ccccc3)c(CCCCC(=O)O)cc2c1)c1ccncc1` (centres unmarked) [Compound 1W, 2-phenyl-6-[[[1-(4-pyridinyl)ethyl]amino]carbonyl]-3-quinolinepentanoic acid] displayed a Ki (Table A, rated A-D) of 20.1 to 200 nM.

Where the note is “Table A, rated A-D”, `C[C@H](NC(=O)c1cnc2nc(-c3ccc(F)cc3)c(CCCCC(=O)O)cc2c1)c1ccc(Cl)cc1` [Compound 6J, 6-[[[1(S)-(4-chlorophenyl)ethyl]amino]carbonyl]-2-(4-fluorophenyl)-1,8-naphthyridine-3-pentanoic acid] returned a Ki of 20.1 to 200 nM.

Under “Table A, rated A-D”, `O=C(O)CCCCc1cc2cc(C(=O)N3CC[C@H](c4ccccc4)C3)ccc2nc1-c1ccccc1` [Compound 1J, 2-phenyl-6-[(3(R)-phenyl-1-pyrrolidinyl)carbonyl]-3-quinolinepentanoic acid] gave an inhibition constant Ki of 2.1 to 20 nM.

As to `O=C(O)CCCCc1cc2cc(C(=O)N[C@@H](c3ccccc3)C(F)(F)F)ccc2nc1-c1ccccc1` [Compound 1G, 2-phenyl-6-[[(2,2,2-trifluoro-1(S)-phenylethyl)amino]carbonyl]-3-quinolinepentanoic acid], the Ki (Table A, rated A-D) was in the range of 2.1 to 20 nM.

Turning to `O=C(O)CCCCc1cc2cc(C(=O)NCc3ccncc3)ccc2nc1-c1ccccc1` [Compound 1Y, 2-phenyl-6-[[(4-pyridinylmethyl)amino]carbonyl]-3-quinolinepentanoic acid], the inhibition constant Ki (Table A, rated A-D) lay within 20.1 to 200 nM.
